Patent publication US7470669B2, “Isolated polypeptide comprising a leptin fragment” (Serono Genetics Institute, S.A., priority 1999, dated 2008)
Marks after values point to notes of the source that are not given here.

Assays:
LSR = LSR activity (oleate-induced 125I-LDL binding, uptake, degradation) in primary cultures of rat hepatocytes; format: cell-based; conditions: for oleate-induced LDL degradation / oleate-induced LDL binding: primary rat hepatocytes; for oleate-induced LDL degradation: 22-mer peptides; for oleate-induced LDL binding: peptide concentrations <50 μg/mL
Protocol: FIGS. 6A, 6B, and 6C show the effect of leptin on ^125I-LDL and ^125I-chylomicron binding to LSR in primary cultures of rat hepatocytes. For FIG. 6A, primary cultures of rat hepatocytes (48 hours after plating) were incubated at 37° C. for 30 min in the absence (□) or presence (▪) of 50 ng/mL leptin in Buffer A, followed by a 20 min incubation at 37° C. with 0.5 mM oleate. The cells were then washed with ice-cold PBS, precooled for 10 min, and then incubated for 1 h at 4° C. with increasing concentrations of ^125I-LDL in Buffer A. Cells were washed, were lysed in 0.1 N NaOH and were counted for radioactivity. Results are shown as the mean of duplicate determinations. For FIG. 6B, primary cultures of rat hepatocytes were incubated at 37° C. for 30 min with or without 20 ng/mL leptin followed by incubation at 37° C. for 4 h with 6 μg protein/mL ^125I-chylomicrons in the absence or presence of 0.5 mM oleate in Buffer A. The cells were then washed and the ^125I-chylomicrons bound to the cell surface were released into the media by incubation with 10 mM suramin. The media was recovered and the radioactivity was measured. Results are shown as the mean±SD of six determinations. Fir FIG. 6C, after incubation at 37° C. for 30 min with 50 ng/mL leptin, the cells were incubated at room temperature for 30 min with 200 μg IgG/mL antibodies directed against rat LSR protein or irrelevant IgG. The amount of ^125I-chylomicrons bound was determined, and results are shown as means±SD of triplicate (irrelevant) or quadruplicate (anti-LSR) determinations.
FIGS. 7A and 7B show a comparison of the effect of human and mouse leptin on LSR activity in rat hepatocytes and on postprandial increase in plasma TG in db^Pas/db^Pas mice. For FIG. 7A, primary cultures of rat hepatocytes were incubated 30 min at 37° C. without (open bar) or with 10 ng/mL recombinant human (solid bar) or mouse (hatched bar) leptin in Buffer A. Oleate (0.5 mM) and ^125I-LDL (20 μg/mL) were added and the cells were incubated 2 h at 37° C. The media were removed and were analyzed for TCA-soluble degradation products. The mean of duplicate determinations is shown. For FIG. 7B, db^Pas/db^Pas mice were given a test meal as previously described, followed immediately by injection i.p. of saline (open bar, n=4), human leptin (1 μg/animal; solid bar, n=3) or mouse leptin (0.25 μg/animal; hatched bar; n=3). The data represent the difference in TG concentrations measured at t=0 and the average of the concentrations at 3 and 4 hours. Results are shown as mean±SEM.
Cells were incubated 30 min at 37° C. with increasing concentrations of mouse (▪) or human (●) leptin peptide. Following this, 0.5 mM oleate and 20 μg/mL ^125I-LDL were added and the cells were further incubated for 2 h at 37° C. The cells were washed, and the amount of oleate-induced ^125I-LDL bound and degraded was measured as described previously (Bihain, B. E., and Yen, F. T. (1992). Free fatty acids activate a high-affinity saturable pathway for degradation of low-density lipoproteins in fibroblasts from a subject homozygous for familial hypercholesterolemia. Biochemistry 31, 4628-4636).
FIGS. 11A and 11B show the effect of mouse leptin (FIG. 11A) or leptin peptide (FIG. 11B) on postprandial plasma TG response in ob/ob mice. […] Postprandial triglyceridemia was measured as described previously. Each point represents the mean±SEM (A: saline, n=8, leptin, n=7; leptin peptide: saline, n=8, leptin, n=8). […] Primary cultures of rat hepatocytes were incubated 30 min at 37° C. with increasing concentrations of mouse leptin peptide. Oleate (0.5 mM) and ^125I-LDL (20 μg/mL) were added and the cells were incubated 2 h at 37° C. After washing, the amount of 125I-LDL bound to the cell surface was measured as described in the Examples section herein. […]

ob/ob mice = experiment: Postprandial plasma TG response after high-fat test meal in ob/ob mice; format: in vivo, mouse; conditions: for postprandial lipemic response: single subcutaneous injection of 50 ng
Protocol: FIGS. 11A and 11B show the effect of mouse leptin (FIG. 11A) or leptin peptide (FIG. 11B) on postprandial plasma TG response in ob/ob mice. […] Postprandial triglyceridemia was measured as described previously. Each point represents the mean±SEM (A: saline, n=8, leptin, n=7; leptin peptide: saline, n=8, leptin, n=8). […] Primary cultures of rat hepatocytes were incubated 30 min at 37° C. with increasing concentrations of mouse leptin peptide. Oleate (0.5 mM) and ^125I-LDL (20 μg/mL) were added and the cells were incubated 2 h at 37° C. After washing, the amount of 125I-LDL bound to the cell surface was measured as described in the Examples section herein.
Mice that were fasted for 2-3 hours were gavage-fed 300 μL of a test meal consisting of 60% fat (37% saturated, 27% mono-, and 36% polyunsaturated fatty acids), 20% protein and 20% carbohydrate, and providing 56 kcal of energy/kg (1.5 g butter, 1.5 g sunflower oil, 2.5 g nonfat dry milk, 2.5 g sucrose and 3 ml water). Immediately after the meal, the animals were injected intravenously (db/db) or intraperitoneally (db^Pas/db^Pas) with either 200 μL physiological saline or 200 μL of the same solution containing recombinant mouse leptin. At selected time intervals, 20 μL of blood were collected from the orbital (db^Pas/db^Pas) or tail (db/db) vein into ice-cold microfuge tubes containing 4 mmol/L EDTA. Plasma was obtained by centrifugation at 2500 rpm for 20 min at 4° C., and was frozen as aliquots at −80° C. before analysis. TG concentrations were determined using a commercially available enzymatic kit with controls included in each assay (Precinorm L, Roche-Boehringer Mannheim; Lyotrol N, BioMérieux).
The inhibition of the intestinal absorption of dietary lipids by leptin was also investigated. Overnight-fasted ob/ob mice were gavage-fed a high fat test meal. […] Blood samples were taken at 2 and 3 h after the test meal, and plasma TG concentrations were measured (see Table, below). […]

| oleate-induced LDL degradation (LSR) | oleate-induced LDL binding (LSR) | oleate-induced binding of 125I-LDL (LSR; primary cultures of rat hepatocytes (FIG. 11B insert)) | Substance | postprandial lipemic response (ob/ob mice) | Plasma TG 2-3 hours after test meal (ob/ob mice; i.v. 0.5 μg recombinant mouse leptin and/or 2.5 mg lactoferrin, mean ± SD) |
| --- | --- | --- | --- | --- | --- |
| inhibitory effect | increased | – | CHLPWASGLETLDSLGGVLEAS (listed as Homo sapiens) [human peptide, human leptin fragment residues 117-138, 22-mer] | – | – |
| inhibitory effect | increased | stimulate | CSLPQTSGLQKPESLDGVLEAS (listed as Mus musculus) [mouse peptide, mouse leptin fragment residues 117-138, 22-mer] | reduced the postprandial lipemic response | – |
| – | – | – | leptin: plasma protein of 16 kDa produced by adipocytes; recombinant human or mouse leptin, species depends on the experiment | decreases the postprandial lipemic response | 0.79 ± 0.1* mg/mL |
